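Growth conditions: 96-well plates. Treatment: test compound, 48 hours, 5 concentrations. Analysis: linear interpolation between bracketing concentrations; unreached endpoints set to highest concentration. Abbreviation: GI50, concentration required for 50% inhibition of growth. TGI: concentration producing complete growth inhibition.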
What was measured:
Experiment in all cases: NCI-60 cell line screen, 48 h
U251 CNS = system: U251 CNS
K-562 leukemia = system: K-562 leukemia
SNB-19 CNS = system: SNB-19 CNS
UO-31 renal = system: UO-31 renal
SF-539 CNS = system: SF-539 CNS
MALME-3M melanoma = system: MALME-3M melanoma
COLO 205 colon = system: COLO 205 colon
ACHN renal = system: ACHN renal
T-47D breast = system: T-47D breast
SK-MEL-28 melanoma = system: SK-MEL-28 melanoma
M14 melanoma = system: M14 melanoma
UACC-257 melanoma = system: UACC-257 melanoma
HCC-2998 colon = system: HCC-2998 colon
A498 renal = system: A498 renal
OVCAR-3 ovarian = system: OVCAR-3 ovarian
SF-268 CNS = system: SF-268 CNS
EKVX NSCLC = system: EKVX NSCLC
SNB-75 CNS = system: SNB-75 CNS
MOLT-4 leukemia = system: MOLT-4 leukemia
NCI-H460 lung = system: NCI-H460 lung
NCI-H23 lung = system: NCI-H23 lung
IGROV1 ovarian = system: IGROV1 ovarian
MDA-MB-435 = system: MDA-MB-435
SN12C renal = system: SN12C renal
SK-MEL-5 melanoma = system: SK-MEL-5 melanoma
A549 NSCLC = system: A549 NSCLC
UACC-62 melanoma = system: UACC-62 melanoma
786-0 renal = system: 786-0 renal
PC-3 prostate = system: PC-3 prostate
NCI/ADR-RES ovarian = system: NCI/ADR-RES ovarian
OVCAR-5 ovarian = system: OVCAR-5 ovarian
HL-60(TB) leukemia = system: HL-60(TB) leukemia
HCT-15 colon = system: HCT-15 colon
CAKI-1 renal = system: CAKI-1 renal
RPMI-8226 leukemia = system: RPMI-8226 leukemia
OVCAR-4 ovarian = system: OVCAR-4 ovarian
NCI-H226 lung = system: NCI-H226 lung
TK-10 renal = system: TK-10 renal
HT29 colon = system: HT29 colon
KM12 colon = system: KM12 colon
SW-620 colon = system: SW-620 colon
HOP-62 NSCLC = system: HOP-62 NSCLC
OVCAR-8 ovarian = system: OVCAR-8 ovarian
HS 578T breast = system: HS 578T breast
HCT-116 colon = system: HCT-116 colon
MCF7 breast = system: MCF7 breast
BT-549 breast = system: BT-549 breast
SK-OV-3 ovarian = system: SK-OV-3 ovarian
RXF 393 renal = system: RXF 393 renal
SK-MEL-2 melanoma = system: SK-MEL-2 melanoma
SF-295 CNS = system: SF-295 CNS
MDA-MB-231 breast = system: MDA-MB-231 breast

## CCCCCCCCCCCCCCCC1=NCC[N+]1(CCO)CCO
U251 CNS
  GI50: 1.64 µM
  TGI: 3.03 µM
K-562 leukemia
  GI50: 1.36 µM
  TGI: 2.82 µM
SNB-19 CNS
  GI50: 3.8 µM
  TGI: 15.9 µM
UO-31 renal
  GI50: 1.4 µM
  TGI: 3.33 µM
SF-539 CNS
  GI50: 1.91 µM
  TGI: 4 µM
MALME-3M melanoma
  GI50: 12.2 µM
  TGI: 28 µM
COLO 205 colon
  GI50: 1.87 µM
  TGI: 3.68 µM
ACHN renal
  GI50: 2.53 µM
  TGI: 6.64 µM
T-47D breast
  GI50: 3.35 µM
  TGI: 13.2 µM
SK-MEL-28 melanoma
  GI50: 5.1 µM
  TGI: 16.8 µM
M14 melanoma
  GI50: 1.62 µM
  TGI: 3.01 µM
UACC-257 melanoma
  GI50: 6.48 µM
  TGI: 20.7 µM
HCC-2998 colon
  GI50: 1.68 µM
  TGI: 4.19 µM
A498 renal
  GI50: 7.79 µM
  TGI: 21.6 µM
OVCAR-3 ovarian
  GI50: 2.52 µM
  TGI: 5.74 µM
SF-268 CNS
  GI50: 1.71 µM
  TGI: 3.46 µM
EKVX NSCLC
  GI50: 10.2 µM
  TGI: 32.4 µM
SNB-75 CNS
  GI50: 2.47 µM
  TGI: 16.6 µM
MOLT-4 leukemia
  GI50: 1.8 µM
  TGI: 4.15 µM
NCI-H460 lung
  GI50: 1.84 µM
  TGI: 3.47 µM
NCI-H23 lung
  GI50: 2.16 µM
  TGI: 5.08 µM
IGROV1 ovarian
  GI50: 1.21 µM
  TGI: 2.63 µM
MDA-MB-435
  GI50: 2.1 µM
  TGI: 4.4 µM
SN12C renal
  GI50: 1.85 µM
  TGI: 3.92 µM
SK-MEL-5 melanoma
  GI50: 4.39 µM
  TGI: 16.1 µM
A549 NSCLC
  GI50: 2.28 µM
  TGI: 5.35 µM
UACC-62 melanoma
  GI50: 1.77 µM
  TGI: 3.27 µM
786-0 renal
  GI50: 1.64 µM
  TGI: 3 µM
PC-3 prostate
  GI50: 1.42 µM
  TGI: 3.3 µM
NCI/ADR-RES ovarian
  GI50: 2.62 µM
  TGI: 6.61 µM
OVCAR-5 ovarian
  GI50: 1.97 µM
  TGI: 4.15 µM
HL-60(TB) leukemia
  GI50: 0.442 µM
  TGI: 2.61 µM
HCT-15 colon
  GI50: 1.94 µM
  TGI: 4.48 µM
CAKI-1 renal
  GI50: 3.58 µM
  TGI: 14.6 µM
RPMI-8226 leukemia
  GI50: 4.89 µM
  TGI: 40.5 µM
OVCAR-4 ovarian
  GI50: 4.75 µM
  TGI: 26.5 µM
NCI-H226 lung
  GI50: 3.17 µM
  TGI: 12.3 µM
TK-10 renal
  GI50: 3.55 µM
  TGI: 13.6 µM
HT29 colon
  GI50: 2.57 µM
  TGI: 9.13 µM
KM12 colon
  GI50: 1.78 µM
  TGI: 3.52 µM
SW-620 colon
  GI50: 1.76 µM
  TGI: 3.54 µM
HOP-62 NSCLC
  GI50: 1.71 µM
  TGI: 3.23 µM
OVCAR-8 ovarian
  GI50: 3.03 µM
  TGI: 8.36 µM
HS 578T breast
  GI50: 2.51 µM
  TGI: 7.17 µM
HCT-116 colon
  GI50: 1.59 µM
  TGI: 2.94 µM
MCF7 breast
  GI50: 3.46 µM
  TGI: 14 µM
BT-549 breast
  GI50: 3.3 µM
  TGI: 11.9 µM
SK-OV-3 ovarian
  GI50: 4.3 µM
  TGI: 15.9 µM
RXF 393 renal
  GI50: 2.47 µM
  TGI: 6.28 µM
SK-MEL-2 melanoma
  GI50: 2.89 µM
  TGI: 10.3 µM
SF-295 CNS
  GI50: 10.5 µM
  TGI: 26.3 µM
MDA-MB-231 breast
  GI50: 1.81 µM
  TGI: 3.51 µM
